The results in this text go back to ChEMBL document CHEMBL5579883, “Discovery of Novel Neo-Clerodane Derivatives as Potent Dual-Functional Antiosteoporosis Agents through Targeting Peroxisome Proliferator-Activated Receptor-γ” (J Med Chem, 2024).

SMILES strings stand for the structures. The source made the active and inactive calls. The rule behind the calls is not given here.

The test system of data set [1] is BMDM. Description: Cytotoxicity against mouse Bone marrow macrophage at 10 uM measured after 72 hrs by MTT assay. It is filed as toxicity, cell-based. (In general: Formazan colour is commonly taken as a measure of viable cells.)
Data set [2] has as its system BMDM. As to the kind of experiment: Inhibition of osteoclastogenesis in C57BL/6J mouse Bone marrow macrophage cells assessed as inhibition of RANKL-stimulated osteoclast formation measured after 6 days by tartrate-resistant acid phosphatase (TRAP) staining assay. The settings on record: 144 h.
The target of data set [3] is T1, Peroxisome proliferator-activated receptor gamma (Homo sapiens, UniProt P37231).
T1 sequence (P37231 whole entry): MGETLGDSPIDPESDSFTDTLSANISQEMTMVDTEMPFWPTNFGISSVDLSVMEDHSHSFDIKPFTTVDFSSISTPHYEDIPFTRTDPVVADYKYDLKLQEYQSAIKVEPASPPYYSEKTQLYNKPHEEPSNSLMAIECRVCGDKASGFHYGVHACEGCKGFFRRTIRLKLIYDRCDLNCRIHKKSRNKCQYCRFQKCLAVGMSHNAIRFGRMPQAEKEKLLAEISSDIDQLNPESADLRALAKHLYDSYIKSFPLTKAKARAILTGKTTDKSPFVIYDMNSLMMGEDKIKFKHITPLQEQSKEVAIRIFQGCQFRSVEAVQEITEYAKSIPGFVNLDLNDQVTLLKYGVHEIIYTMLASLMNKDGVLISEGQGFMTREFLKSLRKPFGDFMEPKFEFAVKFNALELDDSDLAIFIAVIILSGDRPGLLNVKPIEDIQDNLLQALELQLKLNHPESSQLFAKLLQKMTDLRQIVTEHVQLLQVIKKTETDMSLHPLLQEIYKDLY
Description: Antagonist activity at PPAR gamma LBD (203 to 476 residues) (unknown origin) expressed in HEK293T cells co-transfected with pCMV-GAL4-PPARgamma-LBD-SV40-Renilla-luciferase assessed as reduction of rosiglitazone induced PPAR-gamma activation incubated for 24 hrs by dural-luciferase reporter assay. It is filed as cell-based. (In general: In a reporter assay the amount or activity of a reporter protein is the signal.)

The test system of data set [4] is BMDM. As to the kind of experiment: cells. The following applies: Mus musculus, 144 h, read-out: INH.
Description: Inhibition of osteoclastogenesis in C57BL/6J mouse Bone marrow macrophage cells assessed as inhibition of RANKL-stimulated osteoclast formation at 10 uM measured after 6 days by tartrate-resistant acid phosphatase (TRAP) staining assay relative to control
Data set [5] has as its target T1, Peroxisome proliferator-activated receptor gamma. Description: Binding affinity to PPAR gamma LBD (203 to 476 residues) (unknown origin) extracted from Escherichia coli BL21 (DE3) cells assessed as dissociation constant by Isothermal titration calorimetry method. (In general: ITC needs no label: the signal is the heat of the interaction.)
For data set [6] the target is unchanged. Description: Binding affinity to PPAR gamma LBD (203 to 476 residues) (unknown origin) extracted from Escherichia coli BL21 (DE3) cells assessed as dissociation constant in presence of rosiglitazone by Isothermal titration calorimetry method.
In data set [7] the test system is BMDM. Description: Inhibition of osteoclastogenesis in C57BL/6J mouse Bone marrow macrophage cells assessed as inhibition of RANKL-stimulated osteoclast formation at 10 uM measured after 7 days by tartrate-resistant acid phosphatase (TRAP) staining assay. The data set is classed as functional, cell-based. The following applies: time 7.0 day.
In data set [8] the test system is BMDM. As to the kind of experiment: Inhibition of osteoclastogenesis in C57BL/6J mouse Bone marrow macrophage cells assessed as inhibition of RANKL-stimulated osteoclast formation at 10 uM measured after 7 days in presence of rosiglitazone by tartrate-resistant acid phosphatase (TRAP) staining assay. The following applies: time 7.0 day. It is filed as functional, cell-based.

The target of data set [9] is T2, Peroxisome proliferator-activated receptor gamma coactivator 1-alpha (Homo sapiens) (UniProt Q9UBK2).
T2 sequence (whole entry): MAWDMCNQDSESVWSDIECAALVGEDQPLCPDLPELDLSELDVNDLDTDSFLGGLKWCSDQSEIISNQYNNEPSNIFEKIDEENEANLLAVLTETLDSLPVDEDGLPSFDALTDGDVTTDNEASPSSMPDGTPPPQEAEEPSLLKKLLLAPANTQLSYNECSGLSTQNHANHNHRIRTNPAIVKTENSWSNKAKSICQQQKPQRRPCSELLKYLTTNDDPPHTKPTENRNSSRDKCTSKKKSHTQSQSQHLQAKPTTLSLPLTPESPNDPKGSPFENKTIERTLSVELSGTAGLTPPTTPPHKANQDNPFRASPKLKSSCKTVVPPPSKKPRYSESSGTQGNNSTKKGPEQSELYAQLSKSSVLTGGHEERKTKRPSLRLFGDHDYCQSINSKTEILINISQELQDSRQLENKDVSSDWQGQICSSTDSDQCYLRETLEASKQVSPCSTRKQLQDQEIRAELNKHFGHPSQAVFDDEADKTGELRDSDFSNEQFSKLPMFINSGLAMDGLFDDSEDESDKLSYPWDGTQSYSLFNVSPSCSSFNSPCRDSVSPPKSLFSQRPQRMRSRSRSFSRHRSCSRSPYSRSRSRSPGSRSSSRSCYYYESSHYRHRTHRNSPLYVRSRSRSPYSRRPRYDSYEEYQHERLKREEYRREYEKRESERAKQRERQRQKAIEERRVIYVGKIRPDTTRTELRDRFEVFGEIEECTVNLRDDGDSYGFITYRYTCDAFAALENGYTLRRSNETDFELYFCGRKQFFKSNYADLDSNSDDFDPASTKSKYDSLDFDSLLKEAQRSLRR
As to the kind of experiment: Effect on PGC-1 alpha recruitment (unknown origin) incubated for 24 hrs at 10 uM by TR-FRET assay.

In data set [10] the target is Nuclear receptor corepressor 1 (Homo sapiens) (UniProt O75376). As to the kind of experiment: Effect on NCoR recruitment (unknown origin) at 10 uM incubated for 24 hrs by TR-FRET assay.
Sequence of Nuclear receptor corepressor 1 (Homo sapiens) (O75376 whole entry): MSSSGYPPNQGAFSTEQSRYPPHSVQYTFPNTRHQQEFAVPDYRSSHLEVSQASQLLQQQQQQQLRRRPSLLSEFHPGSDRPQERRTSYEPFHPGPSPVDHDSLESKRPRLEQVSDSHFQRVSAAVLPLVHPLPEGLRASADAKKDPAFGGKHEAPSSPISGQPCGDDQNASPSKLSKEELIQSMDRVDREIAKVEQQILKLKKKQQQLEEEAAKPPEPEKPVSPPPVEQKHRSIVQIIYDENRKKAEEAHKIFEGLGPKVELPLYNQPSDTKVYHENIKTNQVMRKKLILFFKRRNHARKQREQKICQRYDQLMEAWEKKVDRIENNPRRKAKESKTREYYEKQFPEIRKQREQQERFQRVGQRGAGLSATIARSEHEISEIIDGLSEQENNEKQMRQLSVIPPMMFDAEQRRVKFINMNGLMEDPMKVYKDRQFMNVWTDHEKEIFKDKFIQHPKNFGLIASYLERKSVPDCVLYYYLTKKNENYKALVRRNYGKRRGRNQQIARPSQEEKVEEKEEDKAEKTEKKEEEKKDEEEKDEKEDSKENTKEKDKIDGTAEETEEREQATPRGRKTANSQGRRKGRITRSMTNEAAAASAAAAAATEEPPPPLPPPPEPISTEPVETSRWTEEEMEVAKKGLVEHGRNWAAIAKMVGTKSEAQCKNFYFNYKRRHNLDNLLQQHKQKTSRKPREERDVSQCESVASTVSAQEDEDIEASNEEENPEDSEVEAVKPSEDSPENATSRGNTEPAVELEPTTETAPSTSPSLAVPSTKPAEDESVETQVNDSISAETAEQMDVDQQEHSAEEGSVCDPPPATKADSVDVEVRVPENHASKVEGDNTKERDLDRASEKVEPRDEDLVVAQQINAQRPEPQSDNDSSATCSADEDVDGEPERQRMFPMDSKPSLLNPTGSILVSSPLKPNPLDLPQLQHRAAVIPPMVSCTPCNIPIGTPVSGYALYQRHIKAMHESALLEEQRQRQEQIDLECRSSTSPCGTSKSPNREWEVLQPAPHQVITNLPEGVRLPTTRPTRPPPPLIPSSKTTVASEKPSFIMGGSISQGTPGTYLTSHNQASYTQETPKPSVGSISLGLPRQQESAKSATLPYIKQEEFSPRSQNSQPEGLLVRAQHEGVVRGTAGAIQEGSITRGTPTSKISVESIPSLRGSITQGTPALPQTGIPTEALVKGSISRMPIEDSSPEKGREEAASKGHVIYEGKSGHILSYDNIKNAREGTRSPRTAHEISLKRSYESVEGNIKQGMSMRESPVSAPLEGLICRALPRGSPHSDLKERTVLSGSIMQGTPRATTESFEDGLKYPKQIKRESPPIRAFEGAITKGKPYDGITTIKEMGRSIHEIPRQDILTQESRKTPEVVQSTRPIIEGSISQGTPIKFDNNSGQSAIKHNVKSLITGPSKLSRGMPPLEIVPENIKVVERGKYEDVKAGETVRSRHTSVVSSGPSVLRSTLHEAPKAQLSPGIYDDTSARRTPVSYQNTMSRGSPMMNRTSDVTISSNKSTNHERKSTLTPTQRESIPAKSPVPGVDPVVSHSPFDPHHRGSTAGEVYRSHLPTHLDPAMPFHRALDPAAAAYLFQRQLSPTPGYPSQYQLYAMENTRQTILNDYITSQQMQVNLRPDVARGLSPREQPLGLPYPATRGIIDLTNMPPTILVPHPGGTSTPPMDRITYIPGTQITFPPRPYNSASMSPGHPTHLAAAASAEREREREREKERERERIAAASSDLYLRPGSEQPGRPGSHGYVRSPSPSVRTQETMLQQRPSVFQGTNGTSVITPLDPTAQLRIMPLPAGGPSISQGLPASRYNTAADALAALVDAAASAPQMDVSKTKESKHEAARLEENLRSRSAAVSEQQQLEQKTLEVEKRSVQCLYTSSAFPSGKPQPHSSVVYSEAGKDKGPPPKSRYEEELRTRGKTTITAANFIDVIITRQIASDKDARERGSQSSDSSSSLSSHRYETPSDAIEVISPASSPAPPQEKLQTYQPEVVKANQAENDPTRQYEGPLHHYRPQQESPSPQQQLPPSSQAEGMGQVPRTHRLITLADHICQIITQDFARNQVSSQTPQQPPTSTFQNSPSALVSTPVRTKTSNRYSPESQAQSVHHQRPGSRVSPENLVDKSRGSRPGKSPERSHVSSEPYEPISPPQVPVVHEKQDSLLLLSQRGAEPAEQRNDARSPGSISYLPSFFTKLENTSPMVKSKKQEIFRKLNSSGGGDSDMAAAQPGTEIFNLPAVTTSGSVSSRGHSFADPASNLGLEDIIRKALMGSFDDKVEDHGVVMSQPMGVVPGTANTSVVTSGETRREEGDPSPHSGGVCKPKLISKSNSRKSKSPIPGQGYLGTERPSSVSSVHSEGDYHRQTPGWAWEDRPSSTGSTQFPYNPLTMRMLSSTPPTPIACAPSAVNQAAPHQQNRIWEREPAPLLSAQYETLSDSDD

With `C/C=C(\C)C(=O)OC[C@@]12[C@H](CCC[C@]13CO3)[C@@](C)(C[C@H](O)C1=CC(=O)OC1)[C@H](C)C[C@@H]2O`, the Activity entry in the data set with BMDM [1] is reported as “Non-Toxic”. Moreover, the IC50 (commonly the concentration that gives 50% inhibition) is 3.23 µM in the data set on BMDM [2] and 11.5 µM in data set [3]. In the data set with BMDM [4], the inhibition at 10 µM is above 50%.

With `CC(=O)OC[C@@]12[C@@H](OC(C)=O)C[C@@H](C)[C@](C)(CCC3=CC(=O)OC3)[C@H]1CCC[C@]21CO1` [AJUGARIN I], the Activity result with BMDM [1] is given as “Non-Toxic”. Moreover, the IC50 amounted to 3.71 µM in the data set with BMDM [2] and 12 µM in data set [3]. The inhibition at 10 µM in the data set on BMDM [4] was above 50%.

In the case of `C/C=C(\C)C(=O)O[C@@H](C[C@@]1(C)[C@H](C)C[C@H](OC(C)=O)[C@]2(COC(C)=O)[C@@H]1[C@H](O)CC[C@]21CO1)C1=CC(=O)OC1`, the Activity entry in the data set on BMDM [1] was “Non-Toxic”. For the same compound, the concentration for half-maximal inhibition (IC50) in the data set with BMDM [2] worked out at 4.68 µM; in data set [3], 19.5 µM. The inhibition at 10 µM with BMDM [4] is above 50%.

Turning to `C/C=C(\C)C(=O)OC[C@@]12[C@H](CCC[C@]1(O)CCl)[C@@](C)(C[C@H](O)C1=CC(=O)OC1)[C@H](C)C[C@@H]2O`, the Activity result in the data set with BMDM [1] was “Non-Toxic”. Moreover, the IC50 in the data set with BMDM [2] came out at 1.72 µM; in [3], 11.5 µM. The inhibition at 10 µM in the data set with BMDM [4] was above 50%.

Turning to `CC(=O)OC[C@@]12[C@@H](OC(C)=O)C[C@@H](C)[C@](C)(C[C@H](OC(C)=O)C3=CC(=O)OC3)[C@H]1CCC[C@]21CO1`, the Activity entry in the data set with BMDM [1] is listed as “Non-Toxic”. Besides, the IC50 was 2.73 µM in the data set on BMDM [2] and 13.2 µM in data set [3]. Besides, in the data set with BMDM [4], the inhibition at 10 µM is above 50%.

In the case of `C/C=C(\C)C(=O)OC[C@@]12[C@H](CCC[C@]1(O)CCl)[C@@](C)(CCC1=CC(=O)OC1)[C@H](C)C[C@@H]2O`, in the data set with BMDM [1], the Activity entry is reported as “Non-Toxic”. The results for the IC50 (in the data set on BMDM [2]; in [3]) were 1.77 µM and 10.4 µM, respectively. The inhibition at 10 µM in the data set with BMDM [4] was above 50%.

As for `C/C=C(\C)C(=O)OC[C@@]12[C@@H](OC(C)=O)C[C@@H](C)[C@](C)(CCC3=CC(=O)OC3)[C@H]1CCC[C@]21CO1` [AJUGACUMBIN A], the Activity entry in the data set on BMDM [1] is “Non-Toxic”. In addition, the 50% inhibitory concentration (IC50) is 1.92 µM in the data set with BMDM [2] and 8.35 µM in [3]. For the same compound, the equilibrium dissociation constant (Kd) (as a rule, the concentration at which binding is half-saturated) was found to be 17.7 µM in data set [5] and 79.5 µM in data set [6]. For the same compound, the inhibition result in the data set with BMDM [7] and with BMDM [8] was “Active” each time. Also, the result in data set [9] and in [10] was inactive. The inhibition at 10 µM in the data set with BMDM [4] is above 50%.

As for `C/C=C(\C)C(=O)OC[C@@]12[C@@H](OC(C)=O)C[C@@H](C)[C@](C)(CCC3=CC(=O)OC3)[C@H]1CCC[C@]2(O)CCl` [AJUGACUMBIN A CHLOROHYDRIN], the Activity entry in the data set with BMDM [1] is recorded as “Non-Toxic”. Also, the half-inhibitory concentration (IC50) in the data set with BMDM [2] is 1.11 µM; in [3], 10.2 µM. In addition, the inhibition at 10 µM with BMDM [4] is above 50%.

For the compound `COC(=O)[C@@H]1CCC[C@@H]2[C@@](C)(C[C@H](OC(=O)C(C)C)C3=CC(=O)OC3)[C@H](C)C[C@H](O)[C@]21C`, the Activity result with BMDM [1] is recorded as “Non-Toxic”. Besides, the values for the IC50 (in the data set on BMDM [2]; in [3]) were 1.79 µM and 12.5 µM, respectively. In addition, in the data set with BMDM [4], the inhibition at 10 µM is above 50%.

On to `CC(=O)OC[C@@]12[C@@H](OC(C)=O)C[C@@H](C)[C@](C)(C[C@H](OC(C)=O)C3=CC(=O)OC3)[C@H]1[C@H](O)CC[C@]21CO1`, for which the Activity entry in the data set on BMDM [1] is “Non-Toxic”. The values for the 50% inhibitory concentration (IC50) (in the data set with BMDM [2]; in [3]) were 5.1 µM and 13 µM, respectively. For the same compound, in the data set on BMDM [4], the inhibition at 10 µM is above 50%.

In the case of `C/C=C(\C)C(=O)O[C@@H](C[C@@]1(C)[C@H](C)C[C@H](O)[C@]2(C)[C@@H]1CCC[C@H]2C(=O)OC)C1=CC(=O)OC1`, in the data set on BMDM [1], the Activity entry was “Non-Toxic”. For the same compound, the IC50 with BMDM [2] is 1.42 µM. For the same compound, the inhibition at 10 µM in the data set with BMDM [4] was above 50%.

For the compound `C/C=C(\C)C(=O)OC[C@]12C(=O)CCC[C@@H]1[C@@](C)(CCC1=CC(=O)OC1)[C@H](C)CC2=O`, the Activity result with BMDM [1] was “Non-Toxic”. Also, the figures for the IC50 (in the data set with BMDM [2]; in data set [3]) were 2.71 µM and 13.3 µM, respectively.

Consider `C/C=C(\C)C(=O)O[C@@H](C[C@@]1(C)[C@H](C)C[C@H](OC(C)=O)[C@]2(COC(C)=O)[C@@H]1CCC[C@]21CO1)C1=CC(=O)OC1` [AJUGANIPPONIN B], for which, in the data set with BMDM [1], the Activity result is recorded as “Non-Toxic”. The figures for the IC50 (with BMDM [2]; in data set [3]) were 0.97 µM and 6.99 µM, respectively. The figures for the equilibrium dissociation constant (Kd) in [5] and in [6] were 16 µM and 127 µM, respectively. Further, the inhibition entry in the data set on BMDM [7] and in the data set on BMDM [8] was “Active” throughout. Further, the outcome in [9] and in [10] was inactive. The inhibition at 10 µM in the data set with BMDM [4] is above 50%.

Take `CCC(C)C(=O)O[C@@H](C[C@@]1(C)[C@H](C)C[C@H](O)[C@]2(C)[C@@H]1CCC[C@H]2C(=O)OC)C1=CC(=O)OC1` (stereo partly drawn): the Activity entry in the data set on BMDM [1] is given as “Non-Toxic”. Besides, the IC50 in the data set with BMDM [2] was 1.23 µM; in data set [3], 13 µM. Also, the inhibition at 10 µM in the data set on BMDM [4] is above 50%.

Consider `NCCCC(O)(P(=O)(O)O)P(=O)(O)O` [ALENDRONIC ACID], for which the IC50 with BMDM [2] is 4.22 µM. In the data set with BMDM [4], the inhibition at 10 µM is above 50%.
